Experiments:
[1] = molar heat capacity at constant pressure; settings: 101.33 kPa
[2] = for molar entropy: 101.33 kPa
[3] = Molar enthalpy of transition or fusion; settings: Crystal

[Cs+].[F-] [cesium fluoride (CsF)]
Settings | molar entropy, [2] [J/K/mol] | molar heat capacity at constant pressure, [1] [J/K/mol]
5 K, Crystal, Vacuum adiabatic calorimetry | 0.08 | 0.16
10 K, Crystal, Vacuum adiabatic calorimetry | 0.49 | 1.3
15 K, Crystal, Vacuum adiabatic calorimetry | 1.54 | 4.39
20 K, Crystal, Vacuum adiabatic calorimetry | 3.34 | 8.57
25 K, Crystal, Vacuum adiabatic calorimetry | 5.65 | 12.33
30 K, Crystal, Vacuum adiabatic calorimetry | 8.2 | 15.77
35 K, Crystal, Vacuum adiabatic calorimetry | 10.86 | 18.9
40 K, Crystal, Vacuum adiabatic calorimetry | 13.57 | 21.75
45 K, Crystal, Vacuum adiabatic calorimetry | 16.28 | 24.36
50 K, Crystal, Vacuum adiabatic calorimetry | 18.97 | 26.72
60 K, Crystal, Vacuum adiabatic calorimetry | 24.21 | 30.78
70 K, Crystal, Vacuum adiabatic calorimetry | 29.21 | 34.08
80 K, Crystal, Vacuum adiabatic calorimetry | 33.94 | 36.74
90 K, Crystal, Vacuum adiabatic calorimetry | 38.4 | 38.87
100 K, Crystal, Vacuum adiabatic calorimetry | 42.59 | 40.59
110 K, Crystal, Vacuum adiabatic calorimetry | 46.53 | 42.2
120 K, Crystal, Vacuum adiabatic calorimetry | 50.27 | 43.53
130 K, Crystal, Vacuum adiabatic calorimetry | 53.8 | 44.7
140 K, Crystal, Vacuum adiabatic calorimetry | 57.15 | 45.59
150 K, Crystal, Vacuum adiabatic calorimetry | 60.32 | 46.3
160 K, Crystal, Vacuum adiabatic calorimetry | 63.33 | 46.86
170 K, Crystal, Vacuum adiabatic calorimetry | 66.18 | 47.31
180 K, Crystal, Vacuum adiabatic calorimetry | 68.9 | 47.69
190 K, Crystal, Vacuum adiabatic calorimetry | 71.49 | 48
200 K, Crystal, Vacuum adiabatic calorimetry | 73.95 | 48.28
210 K, Crystal, Vacuum adiabatic calorimetry | 76.32 | 48.51
220 K, Crystal, Vacuum adiabatic calorimetry | 78.58 | 48.73
230 K, Crystal, Vacuum adiabatic calorimetry | 80.75 | 48.93
240 K, Crystal, Vacuum adiabatic calorimetry | 82.84 | 49.12
250 K, Crystal, Vacuum adiabatic calorimetry | 84.84 | 49.3
260 K, Crystal, Vacuum adiabatic calorimetry | 86.78 | 49.48
270 K, Crystal, Vacuum adiabatic calorimetry | 88.65 | 49.66
280 K, Crystal, Vacuum adiabatic calorimetry | 90.46 | 49.84
290 K, Crystal, Vacuum adiabatic calorimetry | 92.21 | 50.03
298.15 K, Crystal, Drop calorimetry | 93.6 | 50.19
298.15 K, Crystal, Vacuum adiabatic calorimetry | 93.6 | 50.19
300 K, Crystal, Drop calorimetry | 93.91 | 50.23
300 K, Crystal, Vacuum adiabatic calorimetry | 93.91 | 50.22
310 K, Crystal, Vacuum adiabatic calorimetry | 95.56 | 50.42
320 K, Crystal, Vacuum adiabatic calorimetry | 97.17 | 50.63
330 K, Crystal, Vacuum adiabatic calorimetry | 98.73 | 50.86
340 K, Crystal, Vacuum adiabatic calorimetry | 100.25 | 51.09
350 K, Crystal, Drop calorimetry | 101.76 | 51.72
350 K, Crystal, Vacuum adiabatic calorimetry | 101.74 | 51.33
400 K, Crystal, Drop calorimetry | 108.79 | 53.82
450 K, Crystal, Drop calorimetry | 115.27 | 56.28
500 K, Crystal, Drop calorimetry | 121.34 | 58.95
550 K, Crystal, Drop calorimetry | 127.09 | 61.78
600 K, Crystal, Drop calorimetry | 132.59 | 64.69
650 K, Crystal, Drop calorimetry | 137.88 | 67.68
700 K, Crystal, Drop calorimetry | 143.01 | 70.72
750 K, Crystal, Drop calorimetry | 148 | 73.8
800 K, Crystal, Drop calorimetry | 152.86 | 76.9
850 K, Crystal, Drop calorimetry | 157.61 | 80.02
900 K, Crystal, Drop calorimetry | 162.28 | 83.17
950 K, Crystal, Drop calorimetry | 166.86 | 86.32
973 K, Crystal, Drop calorimetry | 168.94 | 87.78
973 K, Liquid, Drop calorimetry | 191.65 | 70.56
1000 K, Liquid, Drop calorimetry | 193.58 | 70.56
1050 K, Liquid, Drop calorimetry | 197.03 | 70.56
1100 K, Liquid, Drop calorimetry | 200.31 | 70.56
1150 K, Liquid, Drop calorimetry | 203.44 | 70.56
1200 K, Liquid, Drop calorimetry | 206.45 | 70.56
1250 K, Liquid, Drop calorimetry | 209.33 | 70.56
1300 K, Liquid, Drop calorimetry | 212.1 | 70.56
1350 K, Liquid, Drop calorimetry | 214.76 | 70.56
1400 K, Liquid, Drop calorimetry | 217.32 | 70.56

Settings | Normal melting temperature [°C]
[2], Crystal, DTA | 699.6

[3]
Settings | Molar enthalpy of transition or fusion [kcal/mol]
DSC | 5.28
enthalpy increment functions | 5.11
